Measurements published in ChEMBL document CHEMBL1201862, “PubChem BioAssay data set” (2004).
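The compound was tested at five concentrations on cells cultured in 96-well plates, with a 48-hour exposure period. GI50 marks 50% less growth.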 Calls of active or inactive are those of the source. Cut-off read from the data, not from the text of the source: active = GI50 up to about 1.1 µM and inactive = higher.

Assays:
Assay in all cases: DTP human tumour cell line panel, 48 h
RXF 393 = tested on: RXF 393
HL-60 = tested on: HL-60
OVCAR-8 = tested on: OVCAR-8
OVCAR-5 = tested on: OVCAR-5
SR = tested on: SR
HCT-15 = tested on: HCT-15
A549 = tested on: A549
NCI-H460 = tested on: NCI-H460
MDA-MB-435 = tested on: MDA-MB-435
SK-MEL-28 = tested on: SK-MEL-28
UACC-62 = tested on: UACC-62
OVCAR-3 = tested on: OVCAR-3
K562 = tested on: K562
SF-295 = tested on: SF-295
COLO 205 = tested on: COLO 205
TK-10 = tested on: TK-10
A498 = tested on: A498
NCI-H23 = tested on: NCI-H23
PC-3 = tested on: PC-3
SN12C = tested on: SN12C

Compound	GI50 (RXF 393)	GI50 (HL-60)	GI50 (OVCAR-8)	GI50 (OVCAR-5)	GI50 (SR)	GI50 (HCT-15) [nM]	GI50 (A549)	GI50 (NCI-H460)	GI50 (MDA-MB-435)	GI50 (SK-MEL-28)	GI50 (UACC-62)	GI50 (OVCAR-3)	GI50 (K562)	GI50 (SF-295)	GI50 (COLO 205)	GI50 (TK-10)	GI50 (A498)	GI50 (NCI-H23)	GI50 (PC-3)	GI50 (SN12C)
CC(O)c1cc2c(s1)C(=O)c1scc(C(C)O)c1C2=O (stereo not given)	881 nM (active)	646 nM (active)	286 nM (active)	1370 nM (inactive)	271 nM (active)	352	670 nM (active)	757 nM (active)	175 nM (active)	279 nM (active)	245 nM (active)	393 nM (active)	597 nM (active)	168 nM (active)	1910 nM (inactive)	1690 nM (inactive)	2200 nM (inactive)	191 nM (active)	388 nM (active)	530 nM (active)
NCCOc1cccc(C2(N3CCCCC3)CCCCC2)c1	22000 nM (inactive)	25000 nM (inactive)	33400 nM (inactive)	41400 nM (inactive)	16100 nM (inactive)	38900	37200 nM (inactive)	41500 nM (inactive)	17100 nM (inactive)	18700 nM (inactive)	20200 nM (inactive)	34200 nM (inactive)	16000 nM (inactive)	28800 nM (inactive)	12300 nM (inactive)	33700 nM (inactive)	30000 nM (inactive)	> 100000 nM (inactive)	31500 nM (inactive)	> 100000 nM (inactive)
COc1ccc(/C=C\c2cc(OC)c(OC)c(OC)c2)cc1OC	121 nM (active)	91.2 nM (active)	153 nM (active)	12200 nM (inactive)	64.9 nM (active)	113	239 nM (active)	142 nM (active)	18.4 nM (active)	143 nM (active)	197 nM (active)	91.6 nM (active)	120 nM (active)	108 nM (active)	76.7 nM (active)	186 nM (active)	236 nM (active)	216 nM (active)	112 nM (active)	216 nM (active)
